This is an account of results in ChEMBL document CHEMBL1131262, “Comprehensive study on structure-activity relationships of rifamycins: discussion of molecular and crystal structure and spectroscopic and thermochemical properties of rifamycin O” (J Med Chem, 1998).

In brackets after ≈: the same amount, converted by molar mass. Activity calls are given as the source filed them. The calls are words filed in the database; no cut-off is given here.

As a reminder, the MIC is the lowest concentration found to suppress growth.

Assay [1] deals with Nucleic Acid. The assay is described as follows: Inhibitory concentration against DNA dependent RNA polymerase in Escherichia coli. The format is nucleic-acid assay.
Assay [2] concerns Escherichia coli. The assay is described as follows: The compound is evaluated for inhibitory concentration against Escherichia coli and is expressed as minimum inhibitory concentration (MIC). The format is functional.
Assay [3] relates to Escherichia coli. The assay is described as follows: The compound is evaluated for inhibitory concentration against Escherichia coli and is expressed as minimum inhibitory concentration (MIC); Non active. The class given is functional, organism-based.
Assay [4] relates to Nucleic Acid. The assay is described as follows: Inhibitory concentration against DNA dependent RNA polymerase in E. coli; Non active. The format is nucleic-acid assay, Escherichia coli.
The subject of assay [5] is Escherichia coli. The assay is described as follows: The compound is evaluated for inhibitory concentration against Escherichia coli and is expressed as minimum inhibitory concentration (MIC); active. The class given is functional, organism-based.
[6] abbreviates: Escherichia coli, read-out: MIC.

The molecule `CO[C@H]1/C=C/O[C@@]2(C)Oc3c(C)c(O)c4c(O)c(cc(O)c4c3C2=O)NC(=O)/C(C)=C\C=C\[C@H](C)[C@H](O)[C@@H](C)[C@@H](O)[C@@H](C)[C@H](OC(C)=O)[C@@H]1C` (stereo in doubt; form 2) [RIFAMYCIN] showed an IC50 in the assay with Nucleic Acid [1] of 85 nM/unit. This molecule gave a minimal inhibitory concentration (MIC) in the assay with Escherichia coli [2] of 25 µg/mL (≈ 35.8 µM).

`COC1=N/C2=CC(=O)c3c(c(O)c(C)c4c3C(=O)C(C)(O/C=C/C(OC)C(C)C(OC(C)=O)C(C)C(O)C(C)C(O)C(C)\C=C/C=C\1C)O4)C2=O` (configuration not stated): the MIC entry with Escherichia coli [3] was “inactive”. For the molecule `COC1/C=C/OC2(C)Oc3c(C)c(O)c4c(O)c(cc(OCC(=O)Nc5ccc(I)cc5)c4c3C2=O)NC(=O)/C(C)=C\C=C\C(C)(O)C(=O)C(C)C(O)C(C)C(OC(C)=O)C1C` (configuration not stated), the MIC result in the assay with Escherichia coli [3] is “inactive”. Further, the IC50 entry in the assay on Nucleic Acid [4] was “Not Active”. On to `COC1/C=C/OC2(C)Oc3c(C)c(O)c4c(c3C2=O)C2(C=C(NC(=O)/C(C)=C\C=C\C(C)C(O)C(C)C(O)C(C)C(OC(C)=O)C1C)C4=O)OCC(=O)O2` (configuration not stated), for which the MIC in the assay with Escherichia coli [2] (setting [6]) turned out to be 75 µg/mL (≈ 99.5 µM). Turning to `COC1/C=C/OC2(C)Oc3c(C)c(O)c4c(c3C2O)C(=O)C=C(NC(=O)/C(C)=C\C=C\C(C)C(OC(C)=O)C(C)C(O)C(C)C(OC(C)=O)C1C)C4=O` (configuration not stated), the MIC result with Escherichia coli [3] was “inactive”. Moreover, the IC50 result with Nucleic Acid [4] is “Not Active”. On to `COC1/C=C/OC2(C)Oc3c(C)c(O)c4c(c3C2=O)C(=O)C=C(NC(=O)/C(C)=C\C=C\C(C)C(O)C(C)C(O)C(C)C(OC(C)=O)C1C)C4=O` (configuration not stated), for which the IC50 in the assay with Nucleic Acid [1] was 50 nM/unit. Moreover, the MIC with Escherichia coli [2] (setting [6]) is 12 µg/mL (≈ 17.2 µM). As for `CO[C@H]1/C=C/O[C@@]2(C)Oc3c(C)c(O)c4c(O)c(cc(O)c4c3C2=O)NC(=O)/C(C)=C\C=C\[C@H](C)[C@H](O)[C@@H](C)[C@@H](O)[C@@H](C)[C@H](OC(C)=O)[C@@H]1C` (stereo in doubt; form 1) [RIFAMYCIN], the IC50 with Nucleic Acid [1] stood at 15 nM/unit. In the assay with Escherichia coli [2], this molecule came in with an MIC of 3 µg/mL (≈ 4.3 µM). As to `COC1=N\C2=CC(=O)c3c(c(O)c(C)c4c3C(=O)C(C)(O/C=C/C(OC)C(C)C(OC(C)=O)C(C)C(O)C(C)C(O)C(C)/C=C/C=C\1C)O4)C2=O` (configuration not stated), the IC50 entry in the assay with Nucleic Acid [4] is listed as “Not Active”. `CO[C@H]1/C=C/O[C@@]2(C)Oc3c(C)c(O)c4c(O)c(c(/C=N/N5CCN(C)CC5)c(O)c4c3C2=O)NC(=O)/C(C)=C\C=C\[C@H](C)[C@H](O)[C@@H](C)[C@@H](O)[C@@H](C)[C@H](OC(C)=O)[C@@H]1C` [RIFAMPIN]: the MIC with Escherichia coli [2] (setting [6]) was 20 µg/mL (≈ 24.3 µM).

Regarding `COC1/C=C/OC2(C)Oc3c(C)c(O)c4c(c3C2O)C(=O)C=C(NC(=O)/C(C)=C\C=C\C(C)C2OC(C)(C)OC(C(C)C(O)C1C)C2C)C4=O` (configuration not stated), the MIC entry with Escherichia coli [3] was “inactive”. Further, in the assay on Nucleic Acid [4], the IC50 result is on record as “Not Active”. With `COC(=O)C1=C2NC(=O)/C(C)=C\C=C\C(C)C(O)C(C)C(O)C(C)C(OC(C)=O)C(C)C(OC)/C=C/OC3(C)Oc4c(C)c(O)c(c(c4C3=O)C1=O)C2=O` (configuration not stated), the IC50 in the assay on Nucleic Acid [1] was 20 nM/unit. With `CCN(CC)c1nc2c(s1)c1c(O)c3c(O)c(C)c4c(c32)C(=O)[C@@](C)(O/C=C/[C@H](OC)[C@@H](C)[C@@H](OC(C)=O)[C@H](C)[C@H](O)[C@H](C)[C@@H](O)[C@@H](C)/C=C/C=C(/C)C(=O)N1)O4` [RIFAMEXIL], the MIC in the assay with Escherichia coli [2] (setting [6]) came out at 32 µg/mL (≈ 39.5 µM). On to `COc1c(C)c2c3c4c(O)cc5c(c14)OC(N5)/C(C)=C\C=C\C(C)C(O)C(C)C(O)C(C)C(OC(C)=O)C(C)C(OC)/C=C/OC(C)(O2)C3=O` (configuration not stated), for which, in the assay on Escherichia coli [3], the MIC entry is “inactive”. Also, the IC50 result in the assay with Nucleic Acid [4] is “Not Active”. In the case of `COC1/C=C/OC2(C)Oc3c(C)c(O)c4c(c3C2=O)C(=O)C=C(NC(=O)/C(C)=C\C(=O)C2CC2C(O)C(C)C(O)C(C)C(OC(C)=O)C1C)C4=O` (configuration not stated) [TOLYPOMYCINONE], in the assay with Escherichia coli [3], the MIC result was “inactive”. For the same molecule, the IC50 entry with Nucleic Acid [4] is given as “Not Active”. For `COC1/C=C/C2OC3(C)C4c5c(c(C)c(O)c6c5C(=O)C=C(NC(=O)/C(C)=C\C=C\C(C)C5OC(C)(C)OC(C(C)C(O)C1C)C5C)C6=O)OC43O2` (configuration not stated), the MIC result in the assay on Escherichia coli [3] is “inactive”. For the same molecule, the IC50 result in the assay on Nucleic Acid [4] is reported as “Not Active”. On to `COC1/C=C/OC2(C)Oc3c(C)c(O)c4c(c3C2=O)-c2[n-]c3ccc(Br)c[n+]3c2/C(=N/C(=O)/C(C)=C\C=C\C(C)C(O)C(C)C(O)C(C)C(OC(C)=O)C1C)C4=O` (configuration not stated), for which the MIC entry with Escherichia coli [5] was “Active”. The molecule `COC1/C=C/OC2(C)Oc3c(C)c(O)c4c(c3C2O)C(=O)C=C(NC(=O)/C(C)=C\C=C\C(C)C(O)C(C)C(O)C(C)C(OC(C)=O)C1C)C4=O` (configuration not stated) gave an IC50 with Nucleic Acid [1] of 50 nM/unit. In the assay with Nucleic Acid [1], `COC1/C=C/OC2(C)Oc3c(C)c(O)c4c(c3C2=O)C(=O)C=C(NC(=O)C(C)CCCC(C)C(O)C(C)C(O)C(C)C(OC(C)=O)C1C)C4=O` (configuration not stated) yielded an IC50 of 1600 nM/unit.
